Measurements reported in patent US12058986B2, “Method for generating a genetically modified pig with inactivated porcine endogenous retrovirus (PERV) elements” (eGenesis, Inc., priority 2017, dated 2024).

B1: SV40 large T antigen: transiently over-expressed inhibitor of both p53 and Rb pathways (protein, UniProt P03070 1-708, looked up)
Large T antigen: MDKVLNREESLQLMDLLGLERSAWGNIPLMRKAYLKKCKEFHPDKGGDEEKMKKMNTLYKKMEDGVKYAHQPDFGGFWDATEIPTYGTDEWEQWWNAFNEENLFCSEEMPSSDDEATADSQHSTPPKKKRKVEDPKDFPSELLSFLSHAVFSNRTLACFAIYTTKEKAALLYKKIMEKYSVTFISRHNSYNHNILFFLTPHRHRVSAINNYAQKLCTFSFLICKGVNKEYLMYSALTRDPFSVIEESLPGGLKEHDFNPEEAEETKQVSWKLVTEYAMETKCDDVLLLLGMYLEFQYSFEMCLKCIKKEQPSHYKYHEKHYANAAIFADSKNQKTICQQAVDTVLAKKRVDSLQLTREQMLTNRFNDLLDRMDIMFGSTGSADIEEWMAGVAWLHCLLPKMDSVVYDFLKCMVYNIPKKRYWLFKGPIDSGKTTLAAALLELCGGKALNVNLPLDRLNFELGVAIDQFLVVFEDVKGTGGESRDLPSGQGINNLDNLRDYLDGSVKVNLEKKHLNKRTQIFPPGIVTMNEYSVPKTLQARFVKQIDFRPKDYLKHCLERSEFLLEKRIIQSGIALLLMLIWYRPVAEFAQSIQSRIVEWKERLDKEFSLSVYQKMKFNVAMGIGVLDWLRNSDDDDEDSQENADKNEDGGEKNMEDSGHETGIDSQSQGSFQAPQSSQSVHDHNQPYHICRGFTCFKKPPTPPPEPET

Columns and labels:
PERV pol gene = assay: PERV pol targeting (editing) efficiency in FFF3 cells, deep sequencing of PERV pol loci; type: cell-based, porcine; details: for average targeting efficiency (PERV editing efficiency) of FFF3 populations: applied during genetic modification with CRISPR-Cas9
Description: Similar to the procedure previously described by Yang et al, 2015, Science, 80:350, a DNA fragment encoding U6-gRNA1-U6-gRNA2 (Genewiz) was synthesized and incorporated into a previously constructed PiggyBac-cas9 plasmid. To establish the FFF3 cell lines with PiggyBac-Cas9/2gRNAs integration, 5×10^5 FFF3 cells were transfected with 16 μg PiggyBac-Cas9/2gRNAs plasmid and 4 μg Super PiggyBac Transposase plasmid (System Biosciences) using the Neon transfection system according to the instructions in the commercial kits (Thermo Fisher Scientific). To select the cells carrying the integrated construct, 2 μg/mL puromycin was applied to the transfected cells. Based on the negative control, in which puromycin was applied to wild type FFF3 cells, it was determined that the puromycin selection was completed in 4 days. The FFF3-PiggyBac cell line was maintained with 2 μg/mL puromycin hereafter and a 2 μg/ml doxycycline was applied to induce Cas9 expression of the doxycycline-inducible FFF3-PiggyBac cell line.
To avoid the Cas9-consistent expression in the FFF3 cell line, PiggyBac-Cas9/2gRNAs excision from the FFF3 genome was conducted by transfecting 5×10^5 cells with 3 μg PiggyBac Excision-Only Transposase vector using Lipofectamine 2000 reagent. The PiggyBac-Cas9/2gRNAs-excised FFF3 cells were then single-cell sorted into 96-well plates for clone growth and genotyping.
First, puromycin selection followed by PiggyBac excision was conducted on the FFF3, PiggyBac-Cas9/2gRNA cell line. Then the cells were single-cell sorted into both 96-well PCR plates for direct genotyping and 96-well cell culture plates for colony growth.
To genotype single FF cells without clonal expansion, the PERV loci from sorted single cells were directly amplified according to a previously reported single-cell genotyping protocol. Briefly, the single cells were sorted into 96-well PCR plates with each well carrying a 5 μl lysis mixture, which contained 0.51 μl 10×KAPA express extract buffer (KAPA Biosystems), 0.1 μl of 1 U/μl KAPA Express Extract Enzyme and 4.6 μl water. The lysis reaction was incubated at 75° C. for 15 min and the reaction was subsequently inactivated at 95° C. for 5 min. All reactions were then added to 20 μl PCR reactions containing 1×KAPA 2G fast (KAPA Biosystems), 0.2 μM PERV Illumina primers (Methods Table 2). Reactions were incubated at 95° C. for 3 min followed by 25 cycles of 95° C., 20 s; 59° C., 20 s and 72° C., 10 s. To add the Illumina sequence adaptors, 3 μl of reaction products were then added to 20 μl of PCR mix containing 1×KAPA 2G fast(KAPA Biosystems) and 0.3 μM primers carrying Illumina sequence adaptors. Reactions were incubated at 95° C. for 3 min followed by 10 cycles of 95° C., 20 s; 59° C., 20 s and 72° C., 10 s. PCR products were checked on EX 2% gels (Invitrogen), followed by the recovery of 300-400 bp products from the gel. These products were then mixed at roughly the same amount, purified (QIAquick Gel Extraction Kit), and sequenced with MiSeq Personal Sequencer (Illumina). Deep sequencing data was analyzed, and the PERV editing efficiency using CRISPR-GA was determined (Denner et al., 2016, Viruses, 8:215).
As previously described in Yang et al. (6), a custom pipeline was built to estimate the efficiency of PERV inactivation. Briefly, the pol gene was amplified and sequenced via Illumina Next Generation Sequencing using PE250 or PE300. First, the two overlapping reads using PEAR (15) were combined and mapped to the reference region using BLAT. After mapping, the reads were grouped into sets containing specific combinations of haplotypes, and indel types. Read sets with representation lower than 0.5% of the total number of mapped reads were discarded. Finally, the mapping output was parsed to call the different insertions and deletions, as described in Güell et al (16).

[1] = clones grown from sorted single cells

Molecule	average targeting efficiency (PERV editing efficiency) of FFF3 populations (PERV pol gene)	PERV targeting efficiency among treatments with different dosages (PERV pol gene; FFF3 cells, seven days of treatment)	cytotoxicity (FFF3 cells)	increase of the ratio of >80% PERV-ko clones compared with the untreated group (PERV pol gene; [1])	increase of the ratio of >90% PERV-ko clones compared with the untreated group (PERV pol gene; [1])
Cc1ccc(C(=O)Cn2c3c(sc2=N)CCCC3)cc1 [PFTα, pifithrin alpha, reference compound]	did not increased	–	–	–	–
Bcl-2: an apoptosis inhibitor, over-expressed	did not increase	No significant difference	Dose-dependent cytotoxicity	–	–
basic fibroblast growth factor [bFGF]	did not increased	–	–	–	–
B1	increased	–	–	3.75 folds	5.06 folds
